Test results: patent US20110028447A1, “INDAZOLE DERIVATIVES” (Pfizer Inc., priority 2008, published 2011)

molecular target: human CB1 receptor (Homo sapiens, UniProt P21554); assay: Human CB1 receptor binding, [3H] CP-55,940 displacement on HEK cell membranes; design: expressed in transfected cells; host or cells: HEK cells, doxycycline-induced; membrane preparation; settings: CB1 Ki
Procedure: The Human CB1 receptor binding affinity and other biological activities of the compounds of this invention are determined by the following procedures. Membrane preparation: Human Embryonic Kidney (HEK) Cells expressing the human CB1 receptor under transcriptional regulation of a tetracycline inducible promoter were grown in Dulbecco's Modified Essential Medium with sodium pyruvate (Invitrogen, Carlsbad, Calif.) containing 10% tetracycline free fetal bovine serum (Clonetech, Mountain View, Calif.) 100 μg/ml hygromycin (Calbiochem, San Diego, Calif.), 5 μg/ml blasticidin (Invitrogen). CB1 receptor expression was induced by addition of 1 μg/ml doxycycline (Calbiochem) and incubation for an additional 24 hours. Cells were released from flasks using Cell Dissociation Buffer (Invitrogen). Cells were pelleted by centrifugation at 500×G for 5 minutes. Membranes were prepared by resuspending cells in ice cold TEE Buffer (25 mM Tris pH 7.4, 5 mM EDTA, 5 mM EGTA, Complete Protease Inhibitor (Roche, Basel, Switzerland)). Cells were lysed with 12 strokes of a dounce homogenizer. Unlysed cells were pelleted by centrifugation at 500×G for 5 minutes. Membranes were pelleted by centrifugation at 25,000×G for 30 minutes. Membranes were resuspended in TEE, dounced 12 strokes, and pelleted a second time at 25,000×G for 30 minutes. Membrane pellet was resuspended in 50 mM Tris pH 7.4, 100 mM NaCl, 3 mM MgCl2, 0.2 mM EGTA, Complete Protease Inhibitor (Roche). Protein concentration was determined using the Micro-BCA Protein Assay Kit (Pierce, Rockford, Ill.) using BSA as a standard. Membranes were quick frozen and stored at −80 degrees Celsius until use.
Binding experiments: 50 μl of test compound was incubated with 50 μl of [^3H] CP-55,940 (Perkin Elmer, Boston, Mass.) (final concentration=[…]) and 150 μl of membrane homogenate (1 μg/well) in polypropylene 96-well plates (Corning, Acton, Mass.). Final reaction conditions were 50 mM Tris pH 7.4, 100 mM NaCl, 3 mM MgCl2, 0.2 mM EGTA, 0.04% BSA. Nonspecific binding was determined by incubation with 50 μM WIN-55, 212-2 (Tocris, Ellisville, Mo.). After incubation at room temperature for 60 minutes reactions were harvested by vacuum filtration through Unifilter GF/B-96 filters (Perkin Elmer) that had been presoaked in assay buffer containing 0.5% BSA (Sigma, St. Louis, Mo.) using a FilterMate Plate Harvester (Perkin Elmer). Filters were rinsed 4 times with 50 mM Tris pH 7.4, 0.025% Tween-20 and dried at 50 degrees Celsius for at least 30 minutes. 40 μl of Microscint-20 (Perkin Elmer) was added per well, and plates were counted using a Top-Count Microplate Scintillation Counter (Perkin Elmer). Binding data were analyzed and EC50 and K, values calculated using Graph Pad Prism 4.0 Software.

Chain of human CB1 receptor (P21554 whole entry): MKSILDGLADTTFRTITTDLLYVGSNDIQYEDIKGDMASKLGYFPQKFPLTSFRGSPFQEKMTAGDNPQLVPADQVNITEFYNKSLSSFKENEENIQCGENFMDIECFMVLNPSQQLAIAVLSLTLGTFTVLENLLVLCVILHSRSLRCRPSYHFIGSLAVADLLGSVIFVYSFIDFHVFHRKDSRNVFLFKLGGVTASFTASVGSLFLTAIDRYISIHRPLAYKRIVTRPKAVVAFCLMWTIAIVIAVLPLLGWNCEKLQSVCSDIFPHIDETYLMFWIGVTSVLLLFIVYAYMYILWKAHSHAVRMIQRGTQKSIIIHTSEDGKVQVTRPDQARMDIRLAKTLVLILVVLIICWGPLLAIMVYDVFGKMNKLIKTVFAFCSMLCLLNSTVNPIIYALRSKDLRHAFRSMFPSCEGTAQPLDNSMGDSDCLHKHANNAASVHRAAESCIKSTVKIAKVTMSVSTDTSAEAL

Compared with `CC(C)(C)[C@H](NC(=O)c1nn(Cc2ccc(F)cc2)c2ccc(Cl)cc12)C(=O)NCC(N)=O` [Example 430], `CC(C)(C)[C@H](NC(=O)c1nn(Cc2ccc(F)cc2)c2ccc(Cl)cc12)C(N)=O` [Example 429] is 41-fold lower in Ki: 18.2 nM for the first, 0.44 nM for the second. The second binds more tightly here.

Compared with `CC(C)(C)[C@H](NC(=O)c1nn(Cc2ccc(F)cc2)c2ccccc12)C(=O)N[C@H](CO)C(=O)O` [Example 235], `CC(C)(C)[C@H](NC(=O)c1nn(Cc2ccc(F)cc2)c2ccccc12)C(=O)NCC(=N)N` [Example 291] is 180-fold lower in Ki: 222 nM for the first, 1.2 nM for the second.

`CC(C)(C)[C@H](NC(=O)c1nn(Cc2ccc(C#N)cc2)c2cc(F)ccc12)C(=O)NCC(N)=O` [Example 301] and `CC(C)(C)[C@H](NC(=O)c1nn(Cc2ccc(C#N)cc2)c2cc(F)ccc12)C(=O)NC[C@H]1C[C@H]1CO` [Example 491] are within 1.5-fold of each other in Ki: 70.3 nM for the first, 88.5 nM for the second.

Compared with `CC(C)(C)[C@H](NC(=O)c1nn(Cc2ccc(C#N)cc2)c2ccc(Cl)cc12)C(=O)NCC1CC1` [Example 451], `CC(C)(C)[C@H](NC(=O)c1nn(Cc2ccc(F)cc2)c2ccc(Cl)cc12)C(=O)NCC1CC1` [Example 439] is lower in Ki: over 400 nM for the first, 3.26 nM for the second.

Compared with `CC(C)(C)[C@H](NC(=O)c1nn(Cc2ccc(C#N)cc2)c2ccccc12)C(=O)NCC1CC1` [Example 407], `CC(C)(C)[C@H](NC(=O)c1nn(Cc2ccc(C#N)cc2)c2ccccc12)C(=O)NCC1CCC(=O)N1` (stereo partly shown) [Example 401] is higher in Ki: 36.2 nM for the first, over 400 nM for the second. The first binds more tightly here.

Going from `CC(C)(C)[C@H](NC(=O)c1nn(Cc2ccc(C#N)cc2)c2ccccc12)C(=O)N1C[C@@H](O)[C@@H](O)C1` [Example 285] to `CC(C)(C)[C@H](NC(=O)c1nn(Cc2ccc(C#N)cc2)c2ccccc12)C(=O)NC[C@H]1C[C@H]1CO` [Example 489], the Ki rises from 27.9 nM to 127 nM (4.6-fold).

Going from `CC(C)(C)[C@H](NC(=O)c1nn(Cc2ccc(C#N)cc2)c2ccc(Cl)cc12)C(N)=O` [Example 440] to `CC(C)NC(=O)[C@@H](NC(=O)c1nn(Cc2ccc(C#N)cc2)c2ccc(Cl)cc12)C(C)(C)C` [Example 450], the Ki rises from 104 nM to 241 nM (2.3-fold).

`CC(C)(C)[C@H](NC(=O)c1nn(Cc2cccc3ccccc23)c2ccccc12)C(N)=O` [Example 272] and `CC(C)(C)[C@H](NC(=O)c1nn(Cc2cccc3ccccc23)c2ccccc12)C(=O)NC1CC1` [Example 273] cannot be ordered by Ki: over 400 nM for the first, over 400 nM for the second.

First: CC(C)(C)[C@H](NC(=O)c1nn(Cc2ccc(C#N)cc2)c2ccccc12)C(=O)NC[C@H](O)CO [Example 384]
Second: CC(C)(C)[C@H](NC(=O)c1nn(Cc2ccc(C(F)(F)F)cc2)c2ccccc12)C(=O)NC[C@H](O)CO [Example 256]
The Ki of the first is 2.9-fold higher: 286 nM for the first, 98.6 nM for the second.

Going from `CC(C)(C)[C@H](NC(=O)c1nn(Cc2ccc(C#N)cc2)c2ccccc12)C(=O)N[C@H]1CNC(=O)C1` [Example 452] to `CC(C)(C)[C@H](NC(=O)c1nn(Cc2ccc(C#N)cc2)c2ccccc12)C(=O)NCC1CNC(=O)O1` (stereo partly shown) [Example 316], the Ki falls from over 400 nM to 243 nM. The second binds more tightly here.

`CC(C)(C)[C@H](NC(=O)c1nn(Cc2ccc(C#N)cc2)c2ccccc12)C(=O)NCc1nn[nH]n1` [Example 217] and `CC(C)(C)[C@H](NC(=O)c1nn(Cc2ccc(C#N)cc2)c2ccc(Cl)cc12)C(=O)NCCS(C)(=O)=O` [Example 442] cannot be ordered by Ki: over 400 nM for the first, over 400 nM for the second.

Compared with `CC(C)(C)[C@H](NC(=O)c1nn(Cc2ccc(C#N)cc2)c2cc(F)ccc12)C(=O)NC(CO)CO` [Example 296], `CC(C)(C)[C@H](NC(=O)c1nn(Cc2ccc(C#N)cc2)c2cc(F)ccc12)C(=O)NC[C@H]1C[C@@H]1CO` [Example 487] is 1.7-fold higher in Ki: 64.1 nM for the first, 109 nM for the second. The first binds more tightly here.

Compared with `CC(C)(C)[C@H](NC(=O)c1nn(Cc2ccc(C(F)(F)F)cc2)c2ccccc12)C(=O)NC(CO)CO` [Example 261], `CC(C)(C)[C@H](NC(=O)c1nn(Cc2ccc(C(F)(F)F)cc2)c2ccccc12)C(=O)NCC(N)=O` [Example 259] is 1.7-fold higher in Ki: 76.7 nM for the first, 132 nM for the second. The first binds more tightly here.

Going from `CC(C)(C)[C@H](NC(=O)c1nn(Cc2ccc(F)cc2)c2ccc(Cl)cc12)C(=O)NC[C@H](O)CO` [Example 431] to `CC(C)(C)[C@H](NC(=O)c1nn(Cc2ccc(F)cc2)c2ccc(Cl)cc12)C(=O)NC[C@@H](O)CO` [Example 434], the Ki rises from 13.6 nM to 55.1 nM (4.1-fold). The first binds more tightly here.

First: CC(C)(C)[C@H](NC(=O)c1nn(Cc2ccc(F)cc2)c2ccccc12)C(=O)N[C@@H]1CCCC[C@H]1O [Example 248]
Second: CC(C)(C)[C@H](NC(=O)c1nn(Cc2ccc(F)cc2)c2ccccc12)C(=O)N1CCC[C@@H]1C(N)=O [Example 319]
The Ki of the first is 2.4-fold higher: 108 nM for the first, 45.8 nM for the second.

`Cc1nnc(CNC(=O)[C@@H](NC(=O)c2nn(Cc3ccc(C#N)cc3F)c3c(F)cccc23)C(C)(C)C)o1` [Example 372] and `CC(C)(C)[C@H](NC(=O)c1nn(Cc2ccc(C#N)cc2F)c2c(F)cccc12)C(=O)NCC(N)=O` [Example 369] are within 1.5-fold of each other in Ki: 22.6 nM for the first, 28.1 nM for the second.

Going from `CC(C)(C)[C@H](NC(=O)c1nn(Cc2ccc(C#N)cc2)c2cc(F)ccc12)C(=O)N1CC(C(N)=O)C1` [Example 353] to `COc1cc(C#N)ccc1Cn1nc(C(=O)N[C@H](C(=O)N[C@H]2C[C@@H](C(N)=O)C2)C(C)(C)C)c2ccccc21` [Example 399], the Ki rises from 72.8 nM to over 400 nM. The first binds more tightly here.

Going from `CC(C)(C)[C@H](NC(=O)c1nn(Cc2ccc(C#N)cc2F)c2c(F)c(F)ccc12)C(=O)NC[C@@H](O)CO` [Example 360] to `CC(C)(C)[C@H](NC(=O)c1nn(Cc2ccc(C#N)cc2F)c2c(F)c(F)ccc12)C(=O)NC[C@H](O)CO` [Example 361], the Ki falls from 73.5 nM to 41.6 nM (1.8-fold). The second binds more tightly here.

Going from `CC(C)(C)[C@H](NC(=O)c1nn(Cc2ccc(F)cc2)c2ccc(Cl)cc12)C(=O)NCCS(C)(=O)=O` [Example 433] to `CC(C)(C)[C@H](NC(=O)c1nn(Cc2ccc(C#N)cc2F)c2c(F)cccc12)C(=O)NCCS(N)(=O)=O` [Example 371], the Ki rises from 35.5 nM to 54.8 nM (1.5-fold).

`CC(C)(C)[C@H](NC(=O)c1nn(Cc2ccc(C#N)cc2F)c2c(F)cccc12)C(=O)NC[C@@H](O)CO` [Example 366] was tested, and the Ki was 241 nM.

same assay, conditions: read-out: CB1 Ki

First: CC(C)NC(=O)OC1CCCN(C(=O)[C@@H](NC(=O)c2nn(Cc3ccc(F)cc3)c3ccccc23)C(C)(C)C)C1 (stereo partly shown) [Example 318]
Second: CCNC(=O)OC1CCCN(C(=O)[C@@H](NC(=O)c2nn(Cc3ccc(F)cc3)c3ccccc23)C(C)(C)C)C1 (stereo partly shown) [Example 317]
The Ki of the first is 2.2-fold higher: 68.7 nM for the first, 31.1 nM for the second. The second binds more tightly here.

Going from `CC(C)(C)[C@H](NC(=O)c1nn(Cc2ccc(F)cc2)c2ccc(Cl)cc12)C(=O)NCCN1CCNC(=O)C1` [Example 475] to `CC(C)(C)[C@H](NC(=O)c1nn(Cc2ccc(F)c(F)c2)c2ccccc12)C(=O)NCCN1CCNC(=O)C1` [Example 469], the Ki falls from 141 nM to 80.7 nM (1.7-fold). The second binds more tightly here.

First: CC(C)(C)[C@H](NC(=O)c1nn(Cc2ccc(C#N)cc2)c2c(F)cccc12)C(=O)N[C@H]1CCc2ccccc21 [Example 287]
Second: CC(C)(C)[C@H](NC(=O)c1nn(Cc2ccc(C#N)cc2)c2c(F)cccc12)C(=O)NCc1nnc(C(=O)NCCO)o1 [Example 464]
The Ki of the first is higher: over 400 nM for the first, 58 nM for the second.

`CC(C)(C)[C@H](NC(=O)c1nn(Cc2ccc(C(F)(F)F)cc2)c2ccccc12)C(=O)NCCNS(=O)(=O)c1ccc(C#N)cc1` [Example 267] and `Cc1cc(O)nc(CCNC(=O)[C@@H](NC(=O)c2nn(Cc3ccc(F)cc3)c3ccccc23)C(C)(C)C)n1` [Example 483] are within 1.5-fold of each other in Ki: 78 nM for the first, 84 nM for the second.

Going from `CCOC(=O)C1(F)CCN(C(=O)[C@@H](NC(=O)c2nn(Cc3ccc(F)cc3)c3ccccc23)C(C)(C)C)CC1` [Example 342] to `CC(C)(C)[C@H](NC(=O)c1nn(Cc2ccc(F)cc2)c2ccccc12)C(=O)N1CCCC(C(=O)NCCO)C1` (stereo partly shown) [Example 277], the Ki rises from 20.5 nM to 31.7 nM (1.5-fold). The first binds more tightly here.

Going from `CC(C)(C)[C@H](NC(=O)c1nn(Cc2ccc(C#N)cc2F)c2ccccc12)C(=O)NCCN1CCNC(=O)C1` [Example 466] to `CCOC(=O)[C@H]1C[C@@H](NC(=O)[C@@H](NC(=O)c2nn(Cc3ccc(C#N)cc3F)c3ccccc23)C(C)(C)C)C1` [Example 382], the Ki falls from over 400 nM to 238 nM. The second binds more tightly here.

First: CC(C)(C)[C@H](NC(=O)c1nn(Cc2ccc(F)cc2)c2ccccc12)C(=O)NCC1CN(C(N)=O)C1 [Example 347]
Second: CC(C)(C)[C@H](NC(=O)c1nn(Cc2ccc(F)cc2)c2ccccc12)C(=O)NCC(=O)N(CCO)CCO [Example 379]
The Ki of the first is lower: 24.4 nM for the first, over 400 nM for the second. The first binds more tightly here.

Going from `CC(C)(C)C(NC(=O)c1nn(Cc2ccccc2C(N)=O)c2ccccc12)C(N)=O` (stereo not shown) [Example 34] to `CC(C)(C)[C@H](NC(=O)c1nn(Cc2ccc(F)cc2)c2ccccc12)C(=O)N1CCC[C@H]1C(=O)NC[C@H](O)CO` [Example 294], the Ki rises from 154 nM to over 400 nM. The first binds more tightly here.
